Laboratory results as given in ChEMBL document CHEMBL1177793, “Synthesis and evaluation of novel phosphate ester analogs as neutral sphingomyelinase inhibitors” (Bioorg Med Chem Lett, 2010).
Activity calls are given as the source filed them. No cut-off for these calls is given here.

Key:
Bacillus cereus [1] = assay: Inhibition of Bacillus cereus sphingomyelinase expressed in Bacillus subtilis ISW1214 assessed as sphingomyeline liposome degradation at 20 to 100 uM after 30 mins
Bacillus cereus [2] = assay: Inhibition of Bacillus cereus sphingomyelinase expressed in Bacillus subtilis ISW1214 assessed as sphingomyeline liposome degradation after 30 mins
[3] = Inhibition of Bacillus cereus sphingomyelinase expressed in Bacillus subtilis ISW1214 assessed as [14C]sphingomyeline hydrolysis after 30 mins by liquid scintillation counting
[4] = Competitive inhibition of Bacillus cereus sphingomyelinase expressed in Bacillus subtilis ISW1214 after 30 mins by Lineweaver-Burke plot analysis

SMILES: c1ccc(-c2ccccn2)nc1
- inhibition (Bacillus cereus [1]): inactive

SMILES: CCCCCCCCCCCCC/C=C/[C@@H](O)[C@H](COCc1cccc(-c2ccccn2)n1)NC(=O)CCCCC
- inhibition (Bacillus cereus [2]): Dose-dependent effect
- IC50 [3]: 1.2 µM
- Ki [4]: 5.2 µM

SMILES: CCCCCCCCCCCCC/C=C/[C@@H](OCc1cccc(-c2ccccn2)n1)[C@H](CO)NC(=O)CCCCC
- inhibition (Bacillus cereus [1]): inactive
